According to PubChem BioAssay AID2305 (GlaxoSmithKline (GSK), 2010):
“And” between values parts separate entries of the source, which are not always exact repeats. Equal entries are not always repeated.

Test system: P. falciparum 3D7 growth, pLDH absorbance
Assay: blood-stage malaria parasite growth potency – strain 3D7, dose response (AID 2305)

Row | Structure (SMILES) | IC50
1 | CN1CCc2cc(NS(=O)(=O)c3ccc(-c4ccc(Cl)s4)cc3)c(N3CCCCC3)cc2CC1 | 730 nM
2 | Cc1cc(NC(=O)c2cc(S(=O)(=O)N3CCCCC3)ccc2C)no1 | 720 nM
3 | O=[N+]([O-])c1ccc(CNCCCCCCNCc2ccc([N+](=O)[O-])c3ccccc23)c2ccccc12 | 790 nM
4 | CC(Cc1ccc(OC2CCCCC2)cc1)NCC(O)c1cccc(Cl)c1 (stereo unspecified) | 140 nM
5 | CN(C)c1ccc(C2c3nc[nH]c3CCN2C(=O)Nc2cccc([N+](=O)[O-])c2)cc1 (stereo unspecified) | 970 nM
6 | COCCn1c(SC(C)C(=O)Nc2cc(C(F)(F)F)ccc2Cl)nc2ccccc2c1=O (stereo unspecified) | 630 nM
7 | C[C@H]1CN(Cc2cccc(-c3cc(CNC(=O)c4cccc(C(=O)c5ccc(Cl)c(Cl)c5)c4)ccc3F)c2)CCN1 | 1140 nM
8 | COc1ccc(NC(=O)/C=C/c2cc(Br)ccc2F)cc1OCCN(C(C)C)C(C)C | 760 nM
9 | Oc1ccc(CN2CCN(CCOC(c3ccccc3)c3ccccc3)CC2)cc1Cl | 810 nM
10 | COc1ccc(NC(=O)[C@H](CC(C)C)Nc2cc(C)nc(NCc3cccc(C)c3)n2)cc1 | 1020 nM
11 | CN(Cc1cnc2nc(N)nc(N)c2n1)c1ccc(C(=O)NC(CCC(=O)O)C(=O)O)cc1 (stereo unspecified) | 180 nM
12 | O=C(Nc1ccc(OC2CCN(Cc3ccccc3)CC2)c(Cl)c1)c1ccsc1 | 900 nM
13 | CCCCN=C(N)c1ccc(OCCCCCOc2ccc(C(N)=NCCCC)cc2)cc1 | 110 nM
14 | Cc1ccc(Nc2nc3cc(Nc4ccnc(Nc5cccc(CS(C)(=O)=O)c5)n4)ccc3o2)cc1 | 920 nM
15 | CCC(C)CN1CCC(N(C)c2cc(NC(=O)c3cccc(C)c3)ccn2)CC1 (stereo unspecified) | 940 nM
16 | CCCCN1C(=O)C(c2ccccc2)(c2ccccc2)N=C1N | 1030 nM
17 | CCCCn1c(-c2ccco2)nc2c(c(=O)c3ccccc3n2C)c1=O | 1240 nM
18 | CC(C)CC1c2[nH]c3ccccc3c2CCN1C(=O)CCc1ccccc1 (stereo unspecified) | 970 nM
19 | COc1ccc(-c2cccc(NC(=O)c3cccc(Cl)c3)c2)cc1CN1CCCC1 | 730 nM
20 | CC(C)NCc1cccc(-c2cccc(-c3nc4ccccc4[nH]3)c2)c1 | 800 nM
21 | CCCCc1cc(NCc2ccncc2)nc(Nc2ccc(C)cc2)n1 | 790 nM
22 | CC(C)CC1(C(=O)OC(C)(C)C)CC(C(=O)OC(C)(C)C)C(c2cccs2)N1C(=O)c1ccc(C(C)(C)C)cc1 (stereo unspecified) | 140 nM
23 | Cc1cccc2[nH]c(-c3ccc(-c4ccc(CN5CCC(C(N)=O)CC5)cc4)cc3)nc12 | 930 nM
24 | O=[N+]([O-])c1cccc(CNCC2CCN(Cc3ccc4ccccc4c3)CC2)c1 | 880 nM

Row | Structure (SMILES) | IC50
25 | COC(=O)Nc1ccc(-c2ccc(C(=O)NC3CCN(C[C@H](O)c4ccnc5ccc(OC)cc45)CC3)cc2)c(C)c1 | 690 nM
26 | O=C(Nc1ccc(I)cc1)Nc1ccc(Cn2ncc(N3CCCNCC3)c(Cl)c2=O)cc1 | 1120 nM
27 | COc1ccc(CCN(C)CCCOc2ccc(NC(=O)c3cccc4c(=O)c5ccccc5[nH]c34)cc2)cc1OC | 910 nM
28 | Cc1cccc(CNc2nc(C)cc(N[C@@H](CC(C)C)C(=O)NCc3cccc(F)c3)n2)c1 | 1180 nM
29 | COc1ccc(CCNCC(O)COc2nccc3c(S(=O)(=O)N4CCCNCC4)cccc23)cc1OC (stereo unspecified) | 270 nM
30 | Cn1cc(CN2CCCC(COC(c3ccccc3)c3ccccc3)C2)cn1 (stereo unspecified) | 770 nM
31 | O=C(/C=C/c1ccc(Cl)c(Cl)c1)Nc1cccc(CN2CCC(c3c[nH]c4ccc(O)cc34)CC2)c1 | 940 nM
32 | COc1ccc2ncc(F)c([C@H](O)CN3CCC(NCc4ccc5c(c4)OCCO5)CC3)c2c1 | 150 nM
33 | Cc1nnsc1C(=O)Nc1cccc(-c2cccc(-c3nc4ccc(F)cc4[nH]3)c2)c1 | 220 nM
34 | CCCCCCCCc1c(C)[nH]c(C)c(Cl)c1=O | 230 nM
35 | COC(=O)c1ccc(CC(C)NCC(O)c2cccc(OC(F)(F)F)c2)cc1 (stereo unspecified) | 860 nM
36 | Nc1nc(N)c2c(ccc3[nH]c(-c4ccccc4Cl)nc32)n1 | 230 nM
37 | COc1ccc(NC(=O)/C=C/c2ccc(-c3ccc(-c4noc(C)n4)cc3)cc2)cc1OCCN(C)C | 1370 nM
38 | O=C1Nc2cccc3c2C1(CCCCN1CCC(c2c[nH]c4cc(C(F)(F)F)ccc24)CC1)CCC3 (stereo unspecified) | 720 nM
39 | COc1ccc(-c2nc(NC(=O)CSc3ccccc3)sc2C)cc1 | 760 nM
40 | COc1ccc(Cl)cc1S(=O)(=O)Nc1cccc(CCN2CCC(N3CCCCC3)CC2)c1 | 700 nM
41 | COCCN1CCC(NCC(C)(C)c2nc(-c3ccc(Cl)c(O)c3)c(-c3ccncc3)[nH]2)CC1 | 720 nM
42 | COc1ccccc1NC(=O)Nc1cccc(-c2ccc(-c3nc4c(C)cccc4[nH]3)s2)c1 | 580 nM
43 | CC(=O)Nc1ccc(CN2CCN(C(c3ccc(F)cc3)c3ccc(F)cc3)CC2)cc1 | 830 nM
44 | CN(C)CCNC(=O)c1ccc2c(c1)n(C1CCN(S(=O)(=O)c3ccc(-c4ccccc4)cc3)CC1)c(=O)n2CC1CCCCC1 | 620 nM
45 | COc1cccc2cc(C(=O)N[C@@H](CC(C)C)C(=O)NC3CC[C@@H](C)N(C(=O)Nc4ccncc4)CC3=O)oc12 (stereo partly specified) | 290 nM
46 | O=C(NCCc1cccc(Cl)c1Cl)c1cnc(N2CCN(c3ccncc3)CC2)c(Cl)c1 | 700 nM
47 | Oc1ccc2nc(Nc3ccccc3)nc(NCCc3ccccc3)c2c1 | 150 nM
48 | c1ccc(-c2nc3ccccc3[nH]2)c(Nc2ccnc3cc(-c4nccs4)ccc23)c1 | 740 nM

Row | Structure (SMILES) | IC50
49 | Oc1ccc(CCNc2nc(NCCCOc3cccc(-c4ccccc4)c3)nc(N3CCNCC3)n2)cc1 | 1130 nM
50 | Cc1ccc(-n2ncc(C(=O)Nc3cc(Cl)cc(Cl)c3)c2C2CCNCC2)cc1C | 550 nM
51 | N#Cc1ccc(N(CC(=O)NCCc2ccc(F)cc2)CC2CC2)c2ccccc12 | 930 nM
52 | CN1CCC(c2c[nH]c3ccc(NC(=O)Nc4ccc(-c5ccncc5)c(Cl)c4Cl)cc23)CC1 | 700 nM
53 | c1ccc2c(c1)ncn2-c1ccnc(Nc2ccncc2)n1 | 650 nM
54 | CC1CCN(Cc2c(O)ccc3c(CN4CCC(C)CC4)c(O)ccc23)CC1 | 130 nM
55 | O=C(NCCN1CCOCC1)c1ccc(N2CCC(Oc3ccc4ccccc4c3)CC2)nc1 | 760 nM
56 | O=C1CC(C(=O)O)CC(=O)N1 | 760 nM
57 | CCCCOc1c(CCNCCCCNCCc2cc(OC)c3ccccc3c2OCCCC)cc(OC)c2ccccc12 | 920 nM
58 | CC[C@H](C)CNC(=O)c1ccnc(-c2cccc(CN(C)C3CCN(C)CC3)c2)c1 | 900 nM
59 | CCc1cn2c3c(cc(C(=O)N[C@@H](Cc4ccccc4)[C@H](O)CNC4CCCCC4)cc13)N(CC)S(=O)(=O)CC2 | 30 nM
60 | COc1cccc(C(=O)OC2=C3CCC(=O)C3(C)CCC2=O)c1 (stereo unspecified) | 80 nM
61 | O=C(Cn1c(CCc2cccc(F)c2F)cc(=O)c2ccccc21)N(CCN1CCCCC1)Cc1ccc(-c2ccc(C(F)(F)F)cc2)cc1 | 760 nM
62 | CC(C)(C)OC(=O)NCCc1cccc(-c2c[nH]c3ncc(-c4cccc(NS(C)(=O)=O)c4)cc23)c1 | 680 nM
63 | CCc1c(C)c(C#N)c2nc3ccccc3n2c1NCc1ccco1 | 700 nM
64 | Cc1ccc2[nH]cc(C3CCN(CC4CCC(NC(=O)/C=C/c5ccc(Cl)c(Cl)c5)CC4)CC3)c2c1 (stereo unspecified) | 840 nM and 550 nM
65 | C=C(C)CSc1nc2c(c(=O)n1CCc1ccccc1)C1(CCCC1)Cc1ccccc1-2 | 610 nM
66 | O=[N+]([O-])c1cc2c(cc1C=NNc1nc(Nc3ccccc3)nc(Nc3ccccc3)n1)OCO2 | 870 nM
67 | c1cc(CN2CCN(c3ccncc3)CC2)cc(-c2ccc(-c3nc4ccccc4[nH]3)s2)c1 | 150 nM
68 | CCC[C@@H](/C=N/N(C)C(=O)OC(C)(C)C)NC(=O)[C@H](CC(C)C)NC(=O)c1cc2cccc(OC)c2o1 | 1080 nM
69 | O=C(Nc1ccc2c(c1)CCC2)N[C@H]1CCN(CCCCCNC(=O)[C@@H]2C[C@H]2c2ccc(Cl)c(Cl)c2)C1 | 1080 nM
70 | COc1ccc(-c2nc(NCc3ccccc3)c3cc(OC)c(OC)cc3n2)cc1 | 400 nM
71 | O=C(c1cccc(-c2cccc(-c3nc4ccccc4[nH]3)c2)c1)N1CCCCC1CN1CCC(O)C1 (stereo unspecified) | 730 nM
72 | COc1ccccc1N(C)CCNc1cc(C)nc(Nc2ccc(C)cc2)n1 | 1570 nM

Row | Structure (SMILES) | IC50
73 | Cc1cc(N[C@@H](Cc2ccccc2)C(=O)Nc2ccccc2)nc(NCCc2cccs2)n1 | 800 nM
74 | Cc1nc(-c2ccc(C#N)cc2)sc1C(=O)NCCCCN1CCC(c2ccc3c(c2OCCO)CCCC3)CC1 | 850 nM
75 | Cc1cccc2[nH]c(-c3ccc(-c4cccc(CNC5CCN(C)CC5)c4)s3)nc12 | 180 nM
76 | OC1(Cc2ccccc2)CCN(Cc2cccc(-c3c[nH]c4nc(NC5CCCC5)ncc34)c2)CC1 | 930 nM
77 | COc1ccc2nc(N(CCCn3ccnc3)C(=O)C=Cc3cccs3)sc2c1 | 1050 nM
78 | O=C(Nc1ccc(-c2cccc(-c3nc4ccc(F)cc4[nH]3)c2)cc1)c1ccncc1 | 720 nM
79 | Cc1c(F)cc(C(=O)NC2CC2)cc1-c1ccc2c(cnn2S(=O)(=O)c2cccs2)c1 | 860 nM
80 | COc1ccc2ccccc2c1C=NNc1ccnc2cc(Cl)ccc12 | 610 nM
81 | Cc1[nH]c(C)c(-c2ccc(OCc3cc(C(F)(F)F)cc(C(F)(F)F)c3)nc2)c(=O)c1Cl | 110 nM
82 | OC(CNc1ccnc(Nc2cccc(Cl)c2)n1)c1cccc(C(F)(F)F)c1 (stereo unspecified) | 510 nM
83 | CC(=O)Oc1cc(C(=O)Nc2ccc(Cl)cc2)cc2ccccc12 | 860 nM
84 | CCc1cc(COc2ccc(CNCCC(C)C)cc2I)c(OCc2ccccc2)c(COc2ccc(CNCCC(C)C)cc2I)c1 | 1110 nM
85 | O=C(NC1CCN(Cc2ccc(Cl)cc2)CC1)c1cn(-c2ccccc2)nc1-c1cccnc1 | 970 nM
86 | CC(C)(CNC(=O)[C@@H]1CCCN(Cc2ccc(Cl)cc2)C1)c1nc(-c2ccc(Cl)c(O)c2)c(-c2ccncc2)[nH]1 | 940 nM
87 | CCC(C)NC(=O)CN1CN(c2ccccc2)C2(CCN(C(=O)c3ccc4ccccc4c3)CC2)C1=O (stereo unspecified) | 630 nM
88 | N#CN1CC[C@@H](OC(=O)N[C@@H]2C[C@H]2c2ccccc2)C1 | 1340 nM
89 | Cc1ccccc1CNC(=O)Nc1cccc(-c2csc(N=C(N)N)n2)c1 | 700 nM
90 | CCc1c(CCNCCCCCCNCCc2ccc(OC)cc2)ccc(OC)c1OC | 870 nM
91 | O=C(NCCN1CCOCC1)c1ccc(O)c(-c2cccc(C(F)(F)F)c2)c1 | 750 nM
92 | Cc1cc(NN=Cc2ccc(F)cc2)c2ccc(C(F)(F)F)cc2n1 | 820 nM
93 | O=S(=O)(c1ccc(NC(=S)NN=Cc2ccccn2)cc1)N1CCCCC1 | 720 nM
94 | CCCCN(Cc1cccc(C(F)(F)F)c1Cl)c1ccc(C(O)(C(F)(F)F)C(F)(F)F)cc1 | 960 nM
95 | Cc1[nH]c2c(C)cc(NS(C)(=O)=O)cc2c1C1CCN(CC2CCN(C(=O)/C=C/c3ccc(Cl)c(Cl)c3)CC2)CC1 | 240 nM
96 | Cc1cc(C(=O)N[C@H]2CCN(Cc3ccc(OCCCN(C)C)cc3)C2)ccc1Br | 900 nM
